Source: US20250092035A1, “ISOCITRATE DEHYDROGENASE 1 INHIBITORS AND METHODS OF USE THEREOF” (THE WISTAR INSTITUTE OF ANATOMY AND BIOLOGY, priority 2022, published 2025)
Where two headings read alike, the source gives them in different places.

Experiments:
IDH1 [1] = target: T1, IDH1 (Homo sapiens, UniProt O75874); assay: IC50 in two trials and mean (Example 1, assay not described); type: biochemical
IDH1 [2] = target: T1, IDH1; assay: IC50 dose-response curve fits (Example 1, assay not described); type: biochemical; conditions: for IC50: curve fit; for Bottom / Slope / Top: curve-fit parameter
[3] = Microsomal stability (mouse liver microsome assay)
MiaPaCa2 xenograft = tested on: MiaPaCa2 xenograft
Procedure: In vivo studies. […] Mice were maintained under pathogen-free conditions in the animal facility. No additional food or nutrient-contained bedding provided to the animals during these studies. […] Mice with subcutaneous PDX were purchased from The Jackson Laboratory (#TM01212). […] Mice were imaged weekly to monitor tumor progression and tumor volume was assessed for each mouse and plotted longitudinally. […] All experiments with KPC mice were performed under a UK Home Office license and approved by the University of Glasgow Animal Welfare and Ethical Review Board. […] Tamoxifen dissolved in corn oil at 20 mg/ml, and animals received tamoxifen (75 mg/kg, IP administration, once daily) for six consecutive days. For flank xenograft experiments, 1×10^6 cells were suspended in 200 μL of a PBS:matrigel solution (1:1) and injected subcutaneously into the right flank of mice. For orthotopic experiments, 4×10^4 Luciferase-expressing KPC K8484 cells were suspended in 50 μL of a PBS:matrigel solution (1:1) and injected into the pancreas of C57BL/6 mice at 12 weeks of age. Equal number of male and female mice were used. Mice were anesthetized using isoflurane gas. After ensuring appropriate depth of anesthesia, a 0.5 cm left subcostal incision was made to gain access into the peritoneal cavity. The tail of the pancreas was externalized and the mixture was carefully injected into the pancreas. […]

[4] = Mouse pharmacokinetics study; conditions: CD-1, mouse, plasma, ip, 10 mg/kg
IDH1 [5] = target: T1, IDH1; assay: Two-step binding kinetics (Example 1, assay not described)
[6] = reported (ref. 52); cited from earlier work
[7] = Trial 1, read-out: IC50, Trial 1
[8] = Trial 2, read-out: IC50, Trial 2
[9] = mean of the trials, read-out: Mean IC50
[10] = 1st step, read-out: KiAPP (affinity for 1st step)
[11] = 2nd step, read-out: KiAPP* (affinity for 2nd step)

T1 sequence (O75874 whole entry): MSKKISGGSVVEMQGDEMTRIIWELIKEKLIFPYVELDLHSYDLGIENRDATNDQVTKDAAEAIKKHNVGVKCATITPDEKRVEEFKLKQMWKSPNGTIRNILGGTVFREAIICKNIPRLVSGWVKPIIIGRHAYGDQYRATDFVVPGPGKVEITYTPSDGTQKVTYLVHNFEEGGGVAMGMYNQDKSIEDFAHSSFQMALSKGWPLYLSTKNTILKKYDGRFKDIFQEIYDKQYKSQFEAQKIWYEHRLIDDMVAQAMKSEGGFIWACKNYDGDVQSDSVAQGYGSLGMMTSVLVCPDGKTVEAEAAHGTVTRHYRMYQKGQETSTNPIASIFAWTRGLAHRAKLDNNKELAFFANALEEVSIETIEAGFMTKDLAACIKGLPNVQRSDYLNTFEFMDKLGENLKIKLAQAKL

SMILES | IC50 (IDH1 [1]; [7]) | IC50 (IDH1 [1]; [8]) | IC50 (IDH1 [1]; [9]) | also measured
CC1(C)CN(C(=O)c2ccc[nH]2)Cc2c(C(=O)Nc3cccc(C(N)=O)c3)nn(Cc3ccc(F)cc3)c21 [FSM-2-95] | 309 nM | 294 nM | 301 nM | –
CC1(C)CN(C(=O)c2cccs2)Cc2c(C(=O)Nc3cccc(C(N)=O)c3)nn(Cc3ccc(F)cc3)c21 [FSM-2-96] | 265 nM | 253 nM | 259 nM | –
CC1(C)CN(C(=O)c2ccc[nH]2)Cc2c(C(=O)Nc3cccc(C(=O)O)c3)nn(Cc3ccc(F)cc3)c21 [FSM-2-97] | > 10000 nM | 7830 nM | 7830 nM | –
CC1(C)CN(C(=O)c2cccs2)Cc2c(C(=O)Nc3cccc(C(=O)O)c3)nn(Cc3ccc(F)cc3)c21 [FSM-2-98] | 6260 nM | 5070 nM | 5630 nM | –
CC1(C)CN(C(=O)c2ccc[nH]2)Cc2c(C(=O)Nc3ncco3)nn(Cc3ccc(F)cc3)c21 [FSM-2-113] | 1270 nM | 1050 nM | 1160 nM | –
CC1(C)CN(C(=O)c2cccs2)Cc2c(C(=O)Nc3ncco3)nn(Cc3ccc(F)cc3)c21 [FSM-2-114] | 1380 nM | 1230 nM | 1300 nM | –
CC1(C)CN(C(=O)c2ccc[nH]2)Cc2c(C(=O)Nc3nccs3)nn(Cc3ccc(F)cc3)c21 [FSM-2-115] | > 10000 nM | > 10000 nM | > 10000 nM | –
CC1(C)CN(C(=O)c2cccs2)Cc2c(C(=O)Nc3nccs3)nn(Cc3ccc(F)cc3)c21 [FSM-2-116] | > 10000 nM | 8110 nM | 8110 nM | –
COc1ccc(NC(=O)c2nn(Cc3ccc(C(F)(F)F)cc3)c3c2CN(C(=O)c2ccc[nH]2)CC3(C)C)cc1 [FSM-2-275] | – | – | – | IC50 (IDH1 [2]): 3.3 nM; Bottom (IDH1 [2]): 3.6; Slope (IDH1 [2]): 1.3; Top (IDH1 [2]): 99.1
COc1ccc(NC(=O)c2nn(Cc3ccc(C(F)(F)F)cc3)c3c2CN(C(=O)c2cccs2)CC3(C)C)cc1 [FSM-2-276] | – | – | – | IC50 (IDH1 [2]): 2.8 nM; Bottom (IDH1 [2]): 15.8; Slope (IDH1 [2]): 1.4; Top (IDH1 [2]): 98.9
COc1cccc(NC(=O)c2nn(Cc3ccc(C(F)(F)F)cc3)c3c2CN(C(=O)c2ccc[nH]2)CC3(C)C)c1 [FSM-2-277] | – | – | – | IC50 (IDH1 [2]): 2.9 nM; Bottom (IDH1 [2]): 11.8; Slope (IDH1 [2]): 1.0; Top (IDH1 [2]): 99.3
COc1cccc(NC(=O)c2nn(Cc3ccc(C(F)(F)F)cc3)c3c2CN(C(=O)c2cccs2)CC3(C)C)c1 [FSM-2-278] | – | – | – | IC50 (IDH1 [2]): 2.9 nM; Bottom (IDH1 [2]): 4.6; Slope (IDH1 [2]): 1.0; Top (IDH1 [2]): 98.0
CC(O)c1cccc(NC(=O)c2nn(Cc3ccc(C(F)(F)F)cc3)c3c2CN(C(=O)c2cn[nH]c2)CC3(C)C)c1 (stereo not shown) [FSM-2-302] | – | – | – | IC50 (IDH1 [2]): 36 nM; Bottom (IDH1 [2]): 4.0; Slope (IDH1 [2]): 1.0; Top (IDH1 [2]): 97.9; half-life at 0.5 μM ([3]; liver microsomes): 56.6 min
CC1(C)CN(C(=O)c2cn[nH]c2)Cc2c(C(=O)Nc3ccc(F)cc3)nn(Cc3ccc(C(F)(F)F)cc3)c21 [FSM-3-002, N-(4-Fluorophenyl)-7,7-dimethyl-5-(1H-pyrazole-4-carbonyl)-1-(4-(trifluoromethyl)benzyl)-4,5,6,7-tetrahydro-1H-pyrazolo[4,3-c]pyridine-3-carboxamide] | – | – | – | xenograft growth (MiaPaCa2 xenograft; 75 mg/kg IP once daily): marked reduction in MiaPaCa2 xenograft growth; tolerability (MiaPaCa2 xenograft; mouse, in vivo, ip, 75 mg/kg): well-tolerated; Cmax [4]: 2320 ng/mL; half-life at 0.5 μM ([3]; liver microsomes): 147 min
CC1(C)CN(C(=O)c2cn[nH]c2)Cc2c(C(=O)Nc3cccc(F)c3)nn(Cc3ccc(C(F)(F)F)cc3)c21 [FSM-3-02] | – | – | – | IC50 (IDH1 [2]): 113 nM; Bottom (IDH1 [2]): −0.9; Slope (IDH1 [2]): 1.0; Top (IDH1 [2]): 95.0
Cc1ncsc1-c1ccc(CNC(=O)[C@@H]2C[C@@H](O)CN2C(=O)C(NC(=O)CCCCCCOc2cccc(NC(=O)c3nn(Cc4ccc(F)cc4)c4c3CN(C(=O)c3ccc[nH]3)CC4(C)C)c2)C(C)(C)C)cc1 (stereo partly shown) [FSM-3-17] | – | – | – | half-life at 0.5 μM ([3]; liver microsomes): 19.5 min
CC1(C)CN(C(=O)c2cn[nH]c2)Cc2c(C(=O)Nc3cccc(NC(=O)CCCl)c3)nn(Cc3ccc(C(F)(F)F)cc3)c21 [FSM-05-141] | – | – | – | k5 (on rate for 2nd step, min−1) (IDH1 [5]): 0.257 min⁻¹; k6 (off rate for 2nd step) (IDH1 [5]): 0.002 min⁻¹; Ki (IDH1 [5]; [10]): 12500 nM; Ki (IDH1 [5]; [11]): 82.2 nM
C=CC(=O)Nc1cccc(NC(=O)c2nn(Cc3ccc(C(F)(F)F)cc3)c3c2CN(C(=O)c2cn[nH]c2)CC3(C)C)c1 [FSM-05-157] | – | – | – | k5 (on rate for 2nd step, min−1) (IDH1 [5]): 0.306 min⁻¹; k6 (off rate for 2nd step) (IDH1 [5]): 0.001 min⁻¹; Ki (IDH1 [5]; [10]): 23600 nM; Ki (IDH1 [5]; [11]): 64.8 nM
C[C@@H]1CN(C(=O)c2ccc[nH]2)Cc2c(C(=O)Nc3cccc([C@@H](C)O)c3)nn(Cc3ccc(F)cc3)c21 [FSM-206, reference compound] | – | – | – | Bottom (IDH1 [2]): −0.8; Slope (IDH1 [2]): 1.0; Top (IDH1 [2]): 98.0; bioavailability [6]: poor bioavailability
CC1(C)CN(C(=O)c2ccc[nH]2)Cc2c(C(=O)Nc3cccc(C(=O)NC4CC4)c3)nn(Cc3ccc(F)cc3)c21 [IAP-1-23] | 1030 nM | 961 nM | 996 nM | –
CC1(C)CN(C(=O)c2ccc[nH]2)Cc2c(C(=O)Nc3cccc(C(=O)NC4CCCC4)c3)nn(Cc3ccc(F)cc3)c21 [IAP-1-34] | 88 nM | 95 nM | 91 nM | –
CC1(C)CN(C(=O)c2cccs2)Cc2c(C(=O)Nc3cccc(C(=O)NC4CCCC4)c3)nn(Cc3ccc(F)cc3)c21 [IAP-1-35] | 69 nM | 70 nM | 69 nM | –
CC1(C)CN(C(=O)c2cccs2)Cc2c(C(=O)Nc3cccc(C(=O)NC4CCCCC4)c3)nn(Cc3ccc(F)cc3)c21 [IAP-1-37] | 19 nM | 18 nM | 19 nM | –
CC(O)c1cccc(NC(=O)c2nn(Cc3ccc(F)cc3)c3c2CN(C(=O)c2cccn2C)CC3(C)C)c1 (stereo not shown) [IAP-1-39] | 45 nM | 47 nM | 46 nM | –
Cc1c[nH]c(C(=O)N2Cc3c(C(=O)Nc4cccc(C(C)O)c4)nn(Cc4ccc(F)cc4)c3C(C)(C)C2)c1 (stereo not shown) [IAP-1-40] | 520 nM | 475 nM | 497 nM | –
Cc1ncc2n1-c1ccc(Cl)cc1C(c1ccccc1F)=NC2 [Midazolam, reference compound] | – | – | – | half-life at 0.5 μM ([3]; microsomes): 1.76 min
Cn1cccc1C(=O)N1Cc2c(C(=O)Nc3ccccc3)nn(Cc3ccc(F)cc3)c2C(C)(C)C1 [VV-1-19] | 73 nM | 73 nM | 73 nM | –
